Test results published in patent US20250042905A1, “DIHYDROPYRROLO[3,4-C]PYRAZOLE DERIVATIVES AND THEIR USE IN DIAGNOSIS” (AC IMMUNE SA, priority 2021, published 2025).

Biological target: T1, PD brain-derived alpha-synuclein aggregates (Homo sapiens, UniProt P37840)
T1 construct: PD brain-derived alpha-synuclein aggregates were spotted onto microarray slides; from tissue; host or cells: human Parkinson's disease patient brain
Assay: Micro-radiobinding competition assay for the determination of binding affinity
Conditions: competition with tritiated reference alpha-synuclein ligand (20 nM or 30 nM), 100% = excess non-radiolabelled reference ligand; for inhibition at 0.1 µM: read-out: Competition at 100 nM (%); for inhibition at 1 µM: read-out: Competition at 1 μM (%)
Procedure: Micro-Radiobinding Competition Assay for the Determination of Binding Affinity
PD brain-derived alpha-synuclein aggregates were spotted onto microarray slides. The slides were incubated with tritiated reference alpha-synuclein ligand at 20 nM or 30 nM and the example compounds (non-radiolabelled) at 1 μM and 100 nM. In some cases, the non-radiolabelled example compounds were further assessed for a range of different concentrations, varying from 0.05 nM to 2 μM. After incubation, slides were washed and scanned by a real-time autoradiography system (BeaQuant, ai4R). Quantification of the signal was performed by using the Beamage image analysis software (ai4R). Non-specific signal was determined with an excess of non-radiolabelled reference alpha-synuclein ligand (2 μM) and specific binding was calculated by subtracting the non-specific signal from the total signal. Competition was calculated as percent, where 0% was defined as the specific binding in the presence of vehicle and 100% as the values obtained in the presence of excess of the non-radiolabelled reference alpha-synuclein ligand. Ki values were calculated in GraphPad Prism7 by applying a nonlinear regression curve fit using a one site, specific binding model. All measurements were performed with at least two technical replicates.
Table 4: Assessment of binding affinity by micro-radiobinding competition assay on human PD brain-derived alpha-synuclein aggregates.

[1] = non-radiolabelled example compound at 100 nM
[2] = non-radiolabelled example compound at 1 μM

Row | inhibition at 0.1 µM [1] [%] | inhibition at 1 µM [2] [%] | SMILES | Competition at 100 nM (%) [1] [%] | Competition at 1 μM (%) [2] [%]
1 | 44 | 74 | Cc1ccc(N2Cc3nn(-c4cnc(N5CC(F)C5)cn4)cc3C2=O)cn1 [Example 19, 2-(5-(3-fluoroazetidin-1-yl)pyrazin-2-yl)-5-(6-methylpyridin-3-yl)-5,6-dihydropyrrolo[3,4-c]pyrazol-4(2H)-one] |  | 
2 | 39 | 68 | O=C1c2cn(-c3cnc(N4CCCCC(F)C4)cn3)nc2CN1c1cccnc1 (centres unmarked) [Example 5, 2-(5-(3-fluoroazepan-1-yl)pyrazin-2-yl)-5-(pyridin-3-yl)-5,6-dihydropyrrolo[3,4-c]pyrazol-4(2H)-one] |  | 
3 | 17 | 51 | O=C1c2cn(-c3ccc(N4CCCC(F)CC4)nn3)nc2CN1c1cccnc1 (centres unmarked) [Example 28, 2-(6-(4-fluoroazepan-1-yl)pyridazin-3-yl)-5-(pyridin-3-yl)-5,6-dihydropyrrolo[3,4-c]pyrazol-4(2H)-one] |  | 
4 |  |  | O=C1c2cn(-c3cnc(N4CC[C@H](F)C4)nc3)nc2CN1c1cccnc1 [Example 36, 2-2-[(3S)-3-fluoropyrrolidin-1-yl]pyrimidin-5-yl-5-(pyridin-3-yl)-2H,4H,5H,6H-pyrrolo[3,4-c]pyrazol-4-one] | 37 | 64
